{
  "source": "ChEMBL document CHEMBL6109069",
  "about": "(J Med Chem, 2025)",
  "key": {"[1]": {"system": "Trypanosoma brucei rhodesiense", "assay": "Antitrypanosomal activity against Trypanosoma brucei rhodesiense STIB 900", "format": "functional, organism-based"}, "Lipid bilayer [2]": {"system": "Lipid bilayer", "assay": "Disruption of membrane integrity in bacterial cell membrane mimic POPC/POPG LUVs assessed as calcein leakage at 1.3 uM measured for 1 mins by fluorescence spectroscopy analysis"}, "Lipid bilayer [3]": {"system": "Lipid bilayer", "assay": "Disruption of membrane integrity in bacterial cell membrane mimic POPC/POPG LUVs assessed as HTPS leakage at 5 uM measured after 1 mins"}, "Leishmania donovani": {"system": "Leishmania donovani", "assay": "Antitrypanosomal activity against Leishmania donovani MHOM/ET/67/L82 incubated for 72 hrs by resazurin staining based analysis", "format": "functional, organism-based", "conditions": "MHOM/ET/67/L82, 72 h"}, "[4]": {"assay": "Inhibition of Bovine heart ATP synthase assessed as inhibition constant by Michaelis-Menten plot analysis", "parameters": "species or system Bos taurus", "conditions": "read-out: Ki"}, "Trypanosoma cruzi": {"system": "Trypanosoma cruzi", "assay": "Antitrypanosomal activity against Trypanosoma cruzi Tulahuen C4 incubated for 4 days", "format": "functional, organism-based", "conditions": "Tulahuen C4, 96 h"}, "[5]": {"assay": "Inhibition of Escherichia coli ATP synthase assessed as inhibition constant"}, "Mitochondrial membrane [6]": {"system": "Mitochondrial membrane", "assay": "Induction of mitochondrial membrane depolarization in bovine heart assessed as change in fluorescence intensity at 25 nM by safranin O staining based eclipse fluorescence spectrophotometric analysis", "format": "cell membranes", "conditions": "Bos taurus"}, "Plasmodium falciparum": {"system": "Plasmodium falciparum", "assay": "Antiplasmodial activity against Plasmodium falciparum NF54 incubated for 48 hrs", "format": "functional, organism-based", "conditions": "NF54, 48 h"}, "Trypanosoma brucei [7]": {"system": "Trypanosoma brucei", "assay": "Induction of mitochondrial uncoupling activity in Trypanosoma brucei assessed as increase in oxygen consumption rate by measuring fluorescence intensity at 25 nM measured up to 80 mins by O2k-type oxygraph analysis", "format": "functional, organism-based"}, "Fibroblast [8]": {"system": "Fibroblast", "assay": "Induction of mitochondrial uncoupling activity in human Fibroblast cells assessed as increase in oxygen consumption rate by measuring fluorescence intensity at 25 nM measured up to 80 mins by O2k-type oxygraph analysis", "format": "functional, cell-based"}, "[9]": {"assay": "Reduction in respiration rate in human Fibroblast cells assessed as decrease in coupling efficiency at 50 nM incubated up to 80 mins", "format": "functional", "parameters": "scale not given: the % may be the effect or the level left", "conditions": "1.333 h"}, "Mitochondrial membrane [10]": {"system": "Mitochondrial membrane", "assay": "Induction of mitochondrial membrane depolarization in bovine heart assessed as change in fluorescence intensity at 100 to 200 nM by safranin O staining based eclipse fluorescence spectrophotometric analysis", "format": "cell membranes", "conditions": "Bos taurus, dose 100-200 nM"}, "Mitochondrial membrane [11]": {"system": "Mitochondrial membrane", "assay": "Induction of mitochondrial membrane potential in bovine heart assessed as change in fluorescence intensity at 200 nM by safranin O staining based eclipse fluorescence spectrophotometric analysis", "format": "cell membranes", "conditions": "Bos taurus"}, "Fibroblast [12]": {"system": "Fibroblast", "assay": "Induction of mitochondrial uncoupling activity in human Fibroblast cells assessed as increase in oxygen consumption rate by measuring fluorescence intensity by O2k-type oxygraph analysis", "format": "functional, cell-based"}, "Lipid bilayer [13]": {"system": "Lipid bilayer", "assay": "Disruption of membrane integrity in bacterial cell membrane mimic POPC/POPG LUVs assessed as HTPS leakage at 1 uM measured for 1 mins by fluorescence spectroscopy analysis"}, "[14]": {"assay": "Cytotoxicity against rat L6 cells", "format": "toxicity, cell-based"}, "Fibroblast [15]": {"system": "Fibroblast", "assay": "Inhibition of ATP synthase in human Fibroblast cells assessed as decrease in oxygen consumption at 50 nM by OROBOROS instrument based analysis", "format": "cell-based"}, "Mitochondrial membrane [16]": {"system": "Mitochondrial membrane", "assay": "Induction of mitochondrial membrane hyperpolarization in bovine heart assessed as change in fluorescence intensity at 25 nM by safranin O staining based eclipse fluorescence spectrophotometric analysis", "format": "cell membranes", "conditions": "Bos taurus"}, "[17]": {"assay": "Inhibition of yeast ATP synthase assessed as inhibition constant by Michaelis-Menten plot analysis", "parameters": "species or system Saccharomyces cerevisiae"}, "[18]": {"assay": "Toxicity in po dosed mouse assessed as lethal dose", "format": "organism-based", "conditions": "in vivo"}, "[19]": {"assay": "Cytotoxicity against rat L6 cells assessed as cell viability", "format": "toxicity, cell-based"}, "Trypanosoma brucei [20]": {"system": "Trypanosoma brucei", "assay": "Induction of mitochondrial uncoupling activity in Trypanosoma brucei assessed as increase in oxygen consumption rate by measuring fluorescence intensity by O2k-type oxygraph analysis", "format": "functional, organism-based"}, "[21]": {"assay": "Toxicity in ip dosed mouse assessed as lethal dose", "format": "organism-based", "conditions": "in vivo"}, "Lipid bilayer [22]": {"system": "Lipid bilayer", "assay": "Disruption of membrane integrity in bacterial cell membrane mimic POPC/POPG LUVs assessed as HTPS leakage at 5 uM measured for 1 mins by fluorescence spectroscopy analysis"}},
  "note": "Activity calls are given as the source filed them. The rule behind the calls is not given here. Starred links: 1 amine or outer side, 2 acyl side, 3 side chain; linkers in the order of their positions; H or OH if unused. Non-standard residues stand in square brackets, D forms with d. Residues, ends and D or L forms follow the SMILES beside them. *: point of attachment. X1 = CCC(=O)C[C@@H](O)C[C@@H](C)C[C@H](N[*:1])C(=O)[*:2]; Hexenoyl(2E,4S-Me) = CC[C@H](C)/C=C/C(=O)*; Leu(3R-OH) = CC(C)[C@@H](O)[C@H](N)C(=O)O; NH((S)CH(Me)CH2NMe2) = C[C@@H](CN(C)C)N*; Pro(4S-Me) = C[C@@H]1CN[C@H](C(=O)O)C1; NH(1-CH2NMe2-cBu) = CN(C)CC1(N*)CCC1; Benzoyl(4-F) = O=C(c1ccc(F)cc1)*; hCha = N[C@@H](CCC1CCCCC1)C(=O)O; Aib = CC(C)(N)C(=O)O; βAla = NCCC(=O)O",
  "data": [
    {"smiles": "CC(C)C[C@H](NC(=O)[C@H](CCC1CCCCC1)NC(=O)[C@@H]1CCCN1C(=O)c1ccc(F)cc1)C(=O)NC(C)(C)C(=O)N[C@@H](CC(C)C)C(=O)N[C@@H](CC(C)C)C(=O)NC(C)(C)C(=O)NC(C)(C)C(=O)NCCC(=O)NC1(CN(C)C)CCC1", "note": "({Benzoyl(4-F)}-P[hCha]L[Aib]LL[Aib][Aib][βAla]-{NH(1-CH2NMe2-cBu)})", "values": [
      {"measurement": "IC50", "setting": "[1]", "result": 0.39, "unit": "nM"},
      {"measurement": "Activity", "setting": "Lipid bilayer [2]", "result": "Active"},
      {"measurement": "Activity", "setting": "Lipid bilayer [3]", "result": "Active"},
      {"measurement": "IC50", "setting": "Leishmania donovani", "result": 4.9, "unit": "nM"},
      {"measurement": "Ki", "setting": "[4]", "result": 265, "unit": "nM"},
      {"measurement": "IC50", "setting": "Trypanosoma cruzi", "result": 114, "unit": "nM"},
      {"measurement": "Ki", "setting": "[5]", "result": "~260", "unit": "nM"},
      {"measurement": "Activity", "setting": "Mitochondrial membrane [6]", "result": "Active"},
      {"measurement": "IC50", "setting": "Plasmodium falciparum", "result": 5.4, "unit": "nM"},
      {"measurement": "Activity", "setting": "Trypanosoma brucei [7]", "result": "inactive"},
      {"measurement": "Activity", "setting": "Fibroblast [8]", "result": "inactive"},
      {"measurement": "Activity", "setting": "[9]", "result": "~3", "unit": "%"},
      {"measurement": "Activity", "setting": "Mitochondrial membrane [10]", "result": "Active"},
      {"measurement": "Activity", "setting": "Mitochondrial membrane [11]", "result": "Active"}
    ]},
    {"smiles": "CCC(=O)C[C@@H](O)C[C@@H](C)C[C@H](NC(=O)[C@@H]1C[C@H](C)CN1C(=O)/C=C/[C@@H](C)CC)C(=O)N[C@H](C(=O)NC(C)(C)C(=O)N[C@@H](CC(C)C)C(=O)N[C@@H](CC(C)C)C(=O)NC(C)(C)C(=O)NC(C)(C)C(=O)NCCC(=O)N[C@@H](C)CN(C)C)[C@H](O)C(C)C", "note": "({Hexenoyl(2E,4S-Me)}-[Pro(4S-Me)][X1][Leu(3R-OH)][Aib]LL[Aib][Aib][βAla]-{NH((S)CH(Me)CH2NMe2)})", "values": [
      {"measurement": "Activity", "setting": "Fibroblast [12]", "result": "Active"},
      {"measurement": "IC50", "setting": "[1]", "result": 0.25, "unit": "nM"},
      {"measurement": "Activity", "setting": "Lipid bilayer [2]", "result": "Active"},
      {"measurement": "IC50", "setting": "Leishmania donovani", "result": 1.1, "unit": "nM"},
      {"measurement": "Ki", "setting": "[4]", "result": 80, "unit": "nM"},
      {"measurement": "Activity", "setting": "Lipid bilayer [13]", "result": "inactive"},
      {"measurement": "IC50", "setting": "Trypanosoma cruzi", "result": 23, "unit": "nM"},
      {"measurement": "IC50", "setting": "[14]", "result": 259, "unit": "nM"},
      {"measurement": "Ki", "setting": "[5]", "result": "> 1000", "unit": "nM"},
      {"measurement": "inhibition", "setting": "Fibroblast [15]", "result": "Active"},
      {"measurement": "IC50", "setting": "Plasmodium falciparum", "result": 0.61, "unit": "nM"},
      {"measurement": "Activity", "setting": "Mitochondrial membrane [16]", "result": "Active"},
      {"measurement": "Ki", "setting": "[17]", "result": "~30", "unit": "nM"},
      {"measurement": "LD50", "setting": "[18]", "result": 5.4, "unit": "mg/kg"},
      {"measurement": "Activity", "setting": "[9]", "result": "~60", "unit": "%"},
      {"measurement": "IC50", "setting": "[19]", "result": 259, "unit": "nM"},
      {"measurement": "Activity", "setting": "Trypanosoma brucei [20]", "result": "Active"},
      {"measurement": "LD50", "setting": "[21]", "result": 1.8, "unit": "mg/kg"},
      {"measurement": "Activity", "setting": "Lipid bilayer [22]", "result": "inactive"}
    ]}
  ]
}
